From patent US10030047B2 (Hoffmann-La Roche Inc., priority 2015, dated 2018)
Converted amounts (≈) assume the structure as drawn.

These molecules were tested on A. baumannii strain ATCC19606 (assay: Minimum inhibitory concentration (MIC) determination, microbroth dilution (CLSI)). Conditions: Acinetobacter baumannii; A. baumannii ATCC19606; CAMHB; read after 20 hours; >=80% growth inhibition; read-out: ATCC19606 MIC.
Assay type: cell-based
In short: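 CLSI broth microdilution in cation-adjusted Mueller Hinton broth with twofold compound dilutions and ~5×10^5 CFU/ml inoculum, incubated at 35±2 °C. MIC read after 20 h as lowest concentration inhibiting ≥80% of growth, by eye and OD 600 nm.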
With `CN1C(=O)[C@H](CCCCN)NC(=O)[C@H](CCCN)NCc2cccnc2Sc2c(Cl)cc(-c3ccc(O)nc3)cc2CNC(=O)[C@@H]1Cc1c[nH]c2ccccc12` [Example 165, (11S,14S,17S)-14-(4-Amino-butyl)-11-(3-amino-propyl)-25-chloro-23-(6-hydroxy-pyridin-3-yl)-17-(1H-indol-3-ylmethyl)-16-methyl-2-thia-4,10,13,16,19-pentaaza-tricyclo[19.4.0.0*3,8*]pentacosa-1(25),3(8),4,6,21,23-hexaene-12,15,18-trione] the MIC was 4 µg/mL (≈ 5.01 µM).
For `CN(C)c1ccc(-c2cc(Cl)c3c(c2)CNC(=O)[C@H](Cc2c[nH]c4ccccc24)N(C)C(=O)[C@H](CCCCN)NC(=O)[C@H](CCCN)NCc2cccnc2S3)cn1` [Example 166, (11S,14S,17S)-14-(4-Amino-butyl)-11-(3-amino-propyl)-25-chloro-23-(6-dimethylamino-pyridin-3-yl)-17-(1H-indol-3-ylmethyl)-16-methyl-2-thia-4,10,13,16,19-pentaaza-tricyclo[19.4.0.0*3,8*]pentacosa-1(25),3(8),4,6,21,23-hexaene-12,15,18-trione], the MIC was 0.5 µg/mL (≈ 0.606 µM).
`Cc1cc(-c2cc3c(cn2)Sc2ncccc2CN[C@@H](CCCN)C(=O)N[C@@H](CCCCN)C(=O)N(C)[C@@H](Cc2c[nH]c4ccccc24)C(=O)NC3)ccn1` [Example 167, (7S,10S,13S)-13-((1H-Indol-3-yl)methyl)-10-(4-aminobutyl)-7-(3-aminopropyl)-12-methyl-18-(2-methylpyridin-4-yl)-6,7,9,12,13,15,16-octahydrodipyrido[2,3-b:4′,3′-p][1,5,8,11,14]thiatetraazacycloheptadecine-8,11,14(5H)-trione] gave an MIC of 32 µg/mL (≈ 41.9 µM).
`Cc1noc(C)c1-c1cc(Cl)c2c(c1)CNC(=O)[C@H](Cc1c[nH]c3ccccc13)N(C)C(=O)[C@H](CCCCN)NC(=O)[C@H](CCC(N)=O)NCc1cccnc1S2` [Example 169, 3-[(11S,14S,17S)-14-(4-Amino-butyl)-25-chloro-23-(3,5-dimethyl-isoxazol-4-yl)-17-(1H-indol-3-ylmethyl)-16-methyl-12,15,18-trioxo-2-thia-4,10,13,16,19-pentaaza-tricyclo[19.4.0.0*3,8*]pentacosa-1(25),3(8),4,6,21,23-hexaen-11-yl]-propionamide] was tested, and the MIC was 4 µg/mL (≈ 4.91 µM).
For `Cc1cc(-c2cc(Cl)c3c(c2)CNC(=O)[C@H](Cc2c(C)[nH]c4ccccc24)N(C)C(=O)[C@H](CCCCN)NC(=O)[C@H](CCCN)NCc2cccnc2S3)ccn1` [Example 170, (11S,14S,17S)-14-(4-Amino-butyl)-11-(3-amino-propyl)-25-chloro-16-methyl-17-(2-methyl-1H-indol-3-ylmethyl)-23-(2-methyl-pyridin-4-yl)-2-thia-4,10,13,16,19-pentaaza-tricyclo[19.4.0.0*3,8*]pentacosa-1(25),3(8),4,6,21,23-hexaene-12,15,18-trione], the MIC was 0.5 µg/mL (≈ 0.617 µM).
Work on `COc1cc(-c2cc(Cl)c3c(c2)CNC(=O)[C@H](Cc2c(C)[nH]c4ccccc24)N(C)C(=O)[C@H](CCCCN)NC(=O)[C@H](CCCN)NCc2cccnc2S3)ccn1` [Example 171, (11S,14S,17S)-14-(4-Amino-butyl)-11-(3-amino-propyl)-25-chloro-23-(2-methoxy-pyridin-4-yl)-16-methyl-17-(2-methyl-1H-indol-3-ylmethyl)-2-thia-4,10,13,16,19-pentaaza-tricyclo[19.4.0.0*3,8*]pentacosa-1(25),3(8),4,6,21,23-hexaene-12,15,18-trione] yielded an MIC of 0.5 µg/mL (≈ 0.605 µM).
`CN1C(=O)[C@H](CCCCN)NC(=O)[C@H](CCCN)NCc2cccnc2Sc2c(Cl)cc(-c3ccc(S(C)(=O)=O)cc3)cc2CNC(=O)[C@@H]1Cc1c[nH]c2ccccc12` [Example 172, (11S,14S,17S)-14-(4-Amino-butyl)-11-(3-amino-propyl)-25-chloro-17-(1H-indol-3-ylmethyl)-23-(4-methanesulfonyl-phenyl)-16-methyl-2-thia-4,10,13,16,19-pentaaza-tricyclo[19.4.0.0*3,8*]pentacosa-1(25),3(8),4,6,21,23-hexaene-12,15,18-trione] was tested, and the MIC was 0.5 µg/mL (≈ 0.582 µM).
With `CN1C(=O)[C@H](CCCCN)NC(=O)[C@H](CCCN)NCc2cccnc2Sc2c(Cl)cc(-c3cncc(S(C)(=O)=O)c3)cc2CNC(=O)[C@@H]1Cc1c[nH]c2ccccc12` [Example 173, (11S,14S,17S)-14-(4-Amino-butyl)-11-(3-amino-propyl)-25-chloro-17-(1H-indol-3-ylmethyl)-23-(5-methanesulfonyl-pyridin-3-yl)-16-methyl-2-thia-4,10,13,16,19-pentaaza-tricyclo[19.4.0.0*3,8*]pentacosa-1(25),3(8),4,6,21,23-hexaene-12,15,18-trione] the MIC was 2 µg/mL (≈ 2.32 µM).
`CN1C(=O)[C@H](CCCCN)NC(=O)[C@H](CCCN)NCc2cccnc2Sc2c(Cl)cc(N3CCC(N)C3)cc2CNC(=O)[C@@H]1Cc1c[nH]c2ccccc12` (stereo partly drawn) [Example 174, (11S,14S,17S)-14-(4-Amino-butyl)-11-(3-amino-propyl)-23-(3-amino-pyrrolidin-1-yl)-25-chloro-17-(1H-indol-3-ylmethyl)-16-methyl-2-thia-4,10,13,16,19-pentaaza-tricyclo[19.4.0.0*3,8*]pentacosa-1(25),3(8),4,6,21,23-hexaene-12,15,18-trione] gave an MIC of 16 µg/mL (≈ 20.3 µM).
`Cc1n[nH]c(C)c1-c1cc(Cl)c2c(c1)CNC(=O)[C@H](Cc1c[nH]c3ccccc13)N(C)C(=O)[C@H](CCCCN)NC(=O)[C@H](CCCN)NCc1cccnc1S2` [Example 175, (11S,14S,17S)-14-(4-Amino-butyl)-11-(3-amino-propyl)-25-chloro-23-(3,5-dimethyl-1H-pyrazol-4-yl)-17-(1H-indol-3-ylmethyl)-16-methyl-2-thia-4,10,13,16,19-pentaaza-tricyclo[19.4.0.0*3,8*]pentacosa-1(25),3(8),4,6,21,23-hexaene-12,15,18-trione] showed an MIC of 2 µg/mL (≈ 2.5 µM).
With `CN1C(=O)[C@H](CCCCN)NC(=O)[C@H](CCCN)NCc2cccnc2Sc2c(Cl)cc(-c3ccnc(F)c3)cc2CNC(=O)[C@@H]1Cc1c[nH]c2ccccc12` [Example 177, (11S,14S,17S)-14-(4-Amino-butyl)-11-(3-amino-propyl)-25-chloro-23-(2-fluoro-pyridin-4-yl)-17-(1H-indol-3-ylmethyl)-16-methyl-2-thia-4,10,13,16,19-pentaaza-tricyclo[19.4.0.0*3,8*]pentacosa-1(25),3(8),4,6,21,23-hexaene-12,15,18-trione] the MIC was 1 µg/mL (≈ 1.25 µM).
`Cc1ccc(-c2cc3c(cn2)Sc2ncccc2CN[C@@H](CCCN)C(=O)N[C@@H](CCCCN)C(=O)N(C)[C@@H](Cc2c[nH]c4ccccc24)C(=O)NC3)cn1` [Example 178, (7S,10S,13S)-13-((1H-Indol-3-yl)methyl)-10-(4-aminobutyl)-7-(3-aminopropyl)-12-methyl-18-(6-methylpyridin-3-yl)-6,7,9,10,12,13,15,16-octahydrodipyrido[2,3-b:4′,3′-p][1,5,8,11,14]thiatetraazacycloheptadecine-8,11,14(5H)-trione] showed an MIC of 32 µg/mL (≈ 41.9 µM).
`CN1C(=O)[C@H](CCCCN)NC(=O)[C@H](CCCN)NCc2ccccc2Sc2ncc(Cl)cc2CNC(=O)[C@@H]1Cc1c[nH]c2ccccc12` [Example 179] gave an MIC of 32 µg/mL (≈ 45.4 µM).
